Source: patent US20180021307A1, “Combination Treatment” (UCB Biopharma SPRL, priority 2015, published 2018)

Tests used:
6 Hz-induced seizures = test: 6 Hz seizure test in mice with isobolographic analysis; format: in vivo; conditions: for ED50add ± SEM: drug administered alone, i.p., 30 min before the test, NMRI mice; for anticonvulsant effects against 6 Hz seizure: mice
Description: According and Deckers et al. (2000) an isobolographic method used and evaluate interactions among AEDs is considered and be the optimal method for detecting synergy, additivity or antagonism among AEDs in animal models of epilepsy, such as the 6 Hz seizure model in mice. For isobolographic analysis, the experimental (EDmix) and theoretical additive (EDadd) ED50 values are determined from the dose-response curves of combined drugs. ED50 is defined as a dose of a drug protecting 50% of the animals against 6 Hz-induced seizures. ED50mix is an experimentally determined total dose of the mixture of two component drugs, which were administered in the fixed-ratio combination sufficient for a 50% protective effect. Conversely, ED50add represents a total additive dose of two drugs (calculated from the line of additivity), theoretically providing 50% protection against seizures.
The term “interaction index a” refers and the ratio of ED50mix/ED50add. This ratio seems and be a good describer of the strength of interaction between two AEDs in isobolographic analysis (Luszczki et al., 2003; Berenbaum, 1989; Tallarida et al., 1999; Tallarida, 2001, 2002). If ED50mix=ED50add, then α=1. Small derivations of a from 1 may not be considered as significant. If a is smaller than 0.7, this may indicate a synergistic effect. If the index is larger than 1.3, this may indicate an antagonistic effect, and if the index is in between this may indicate purely additive interaction (Luszczki et al., 2003; Kerry et al., 1975; Bourgeois, Wad, 1984, 1988; Bourgeois, 1988).
According and Deckers et al. (2000) an isobolographic method is used to evaluate interactions among AEDs and it is considered to be the optimal method for detecting synergy, additivity or antagonism among AEDs in animal models of epilepsy. The 6 Hz seizure model was performed as previously described (Kaminski et al., 2004). Briefly, mice were stimulated through corneal electrodes connected to an electrical stimulator (ECT Unit 5780, Ugo-Basile, Comerio, Italy) delivering a constant current (0.2 ms duration monopolar rectangular pulses at 6 Hz for 3 s). A drop of saline containing 0.4% oxybuprocaine hydrochloride (Unicaine, Thea, France) was applied on the eyes before stimulation and provide local anesthesia and ensure optimal current conductivity. During the stimulation, each mouse was manually restrained then gently released into the observation cage (38×26×14 cm) immediately after the current application. The seizures were often preceded by a brief period (˜2-3 s) of locomotor agitation (running and jumping). […] The main seizure endpoint was the duration of the immobility. Mice resuming normal behavior within 7 s after the end of the stimulation were considered as not displaying seizure behavior.
The experiments were performed on adult male NMRI mice (Charles River, France) weighing between 24 and 36 g. The mice were kept in colony cages with free access and food and water, under standard laboratory conditions with natural light-dark cycle. After 1 week adaptation the animals were randomly assigned and experimental groups consisting of ten mice. Each mouse was used only once. All experiments were performed between 9 am and 4 pm. Procedures involving animals and their care were conducted in accordance with current European Community regulations.
Fresh drug solutions were prepared ex tempore on each day of experimentation. These pretreatment times before testing of BRV/LCM were based on information about their biologic activity from the literature.
The isobolographic analysis is based on a comparison of equieffective drug doses. In the present study, interactions between drugs, as regards their anticonvulsant efficacy against 6 Hz seizure test were evaluated isobolographically according and the procedure elaborated by Tallarida (1992); Porreca et al. (1990); Luszczki et al. (2006). […]

[1] = test system: secondarily generalized seizures in fully amygdala-kindled rats; test: Amygdala kindling in rats; format: in vivo; conditions: for Protection n/N / Seizure score Mean ± SEM: oral; for Seizure score Mean ± SEM: Racine's scale
6 Hz seizures = conditions: determined in the anticonvulsant drug screening program of NINDS; cited from earlier work
anti-convulsive effect = conditions: published values; cited from earlier work
[2] = clinical population pharmacokinetic analysis; cited from earlier work
[3] = 20 mg/kg alone, 1 h before stimulation, protected against secondarily generalized seizures
[4] = 40 mg/kg alone, 1 h before stimulation
[5] = 20 mg/kg alone, 1 h before stimulation

| SMILES | ED50 (6 Hz-induced seizures; Mus musculus, protection of mice against 6 Hz seizures, drug alone) [mg/kg] | ED50add ± SEM (6 Hz-induced seizures) [mg/kg] | anticonvulsant effects against 6 Hz seizure (6 Hz-induced seizures; drug alone) | anticonvulsant effects against 6 Hz seizure (6 Hz-induced seizures; drug alone, listed as LCM) | Protection n/N [1, 3] | Protection n/N [1, 4] | Protection n/N ([1]; 60 mg/kg alone, 1 h before stimulation) | Seizure score Mean ± SEM [1, 5] | Seizure score Mean ± SEM ([1]; 40 mg/kg alone) | Seizure score Mean ± SEM ([1]; 60 mg/kg alone) | effect on the protection of animals against secondarily generalized seizures or seizure score ([1]; alone, 20, 40 and 60 mg/kg) | ED50 (6 Hz seizures) [mg/kg] | ED50 (anti-convulsive effect) | effect on the protection of animals against secondarily generalized seizures or seizure score ([1]; alone, 20 or 40 mg/kg) | effect on plasma levels of the other drug [2] |
| --- | --- | --- | --- | --- | --- | --- | --- | --- | --- | --- | --- | --- | --- | --- | --- |
| COC[C@@H](NC(C)=O)C(=O)NCc1ccccc1 [Lacosamide, R-2-acetamido-N-benzyl-3-methoxypropionamide] | 8.8 | 8.8 ± 1.1 | dose-dependent anticonvulsant effects | fully protected | 0/8 | 1/8 | 0/8 | 4.75 ± 0.16 | 4.38 ± 0.50 | 4.38 ± 0.26 | did not have any significant effect | 9.9 | about 280 mg/day |  |  |
| CCC[C@@H]1CC(=O)N([C@@H](CC)C(N)=O)C1 [Brivaracetam, (2S)-2-((4R)-2-oxo-4-n-propyl-1-pyrrolidinyl) butanamide] |  | 14.2 ± 1.1 | dose-dependent anticonvulsant effects |  | 1/8 | 1/8 |  | 4.25 ± 0.41 | 4.63 ± 0.38 |  |  |  | about 50 mg/day | did not produce any significant effect | no evidence for any effect |
